Key:
[1] = system: LoVo (human colorectal adenocarcinoma) cell line; assay: MTS cytotoxicity assay, LoVo cell line; assay type: cell-based; settings: 48 h of incubation
Experimental: (§1) LoVo, MDA-MB-231 and HUVEC human cell lines were purchased from American Type Culture Collection (ATCC). Cells were routinely maintained in culture either in culture flasks or seeded in plates, using Dulbecco’s modified Eagle medium/nutrient mixture F-12 (DMEM:F12) medium supplemented with […], 10% fetal calf serum (Sigma Aldrich, St. Louis, MO, USA), 100 units/mL penicillin, 100 μg/mL streptomycin and incubated at 37 °C in 5% CO2 humidified atmosphere.
(§2) Cytotoxicity studies were performed in 96-well microtiter plates with flat bottoms (Falcon, Teterboro, NJ, USA) using the CellTiter 96 Aqueous One Solution Cell Proliferation Assay (Promega, Madison, WI, USA), an MTS-based colorimetric assay. Metabolically active cells have the ability to reduce MTS [3-(4,5-dimethylthiazol-2-yl)-5-(3-carboxymethoxyphenyl)-2-(4-sulfophenyl)-2H-tetrazolium, inner salt], a yellow tetrazolium salt, to a colored formazan that is soluble in the culture medium. Briefly, 15 × 10^3 cells per well were cultured in 100 µL culture medium. After 24 h, adherent cells were treated with different concentrations of the studied compounds, as well as adriamycin (Adr) and cisplatin (Cis-Pt), used as positive controls for 24 h and 48 h, respectively. Each well was then filled with 20 µL of reagent containing MTS and PES (phenazine ethosulfate, a cationic dye with excellent chemical stability that binds to MTS and produces a stable solution). The resulting formazan was determined using a Tecan GENios Spectrophotometer (Tecan US, Durham, NC, USA) by measuring the absorbance at λ = 492 nm after incubation for 4 h at 37 °C with moderate agitation every 15 min. The cytotoxicity tests were performed in triplicate, with results reported as mean values with standard deviations (SD). The cytotoxicity of DMSO was also investigated under the same conditions, and no harmful effect was found at doses less than 1%.
(§3) Data were expressed as cell viability by comparing with untreated cells considered 100% viable, using the following formula:(1) Cell viability (%)=absorbance of treated cells−absorbance of culture medium/absorbance of untreated cells−absorbance of culture medium

[2] = system: HUVEC (human umbilical vein endothelial cells); assay: MTS cytotoxicity assay, HUVEC normal cell line; assay type: cell-based; settings: 24 h of incubation
Experimental: as §1, §2, §3

apotransferrin (apo-Tf) = molecular target: T1, apotransferrin (apo-Tf) (Homo sapiens, UniProt P02787); assay: Apo-Tf fluorescence quenching binding study; settings: for Ka (association binding constant), Apo-Tf / n1 (Number of Binding Sites), Apo-Tf / Kd / fa (fraction of fluorophore accessible to the quencher), Apo-Tf / Ksv* (Stern–Volmer quenching constant), Apo-Tf / quenching effect on apo-Tf fluorescence peak / n2 (Hill Coefficient), Apo-Tf: apo-Tf 1 µM; for Ka (association binding constant), Apo-Tf / n1 (Number of Binding Sites), Apo-Tf / Kd / fa (fraction of fluorophore accessible to the quencher), Apo-Tf / Kq (bimolecular quenching constant), Apo-Tf / n2 (Hill Coefficient), Apo-Tf: 298 K; for Kd: read-out: Kd (dissociation constant), Apo-Tf; for fa (fraction of fluorophore accessible to the quencher), Apo-Tf / Ksv* (Stern–Volmer quenching constant), Apo-Tf: compound 0–8 µM; for Ksv* (Stern–Volmer quenching constant), Apo-Tf: Tris-HCl pH 7.4, 298 K; for quenching effect on apo-Tf fluorescence peak: compound up to 8 µM; for Kq (bimolecular quenching constant), Apo-Tf: from Ksv* with τ0 = 10^−8 s
T1 construct: purchased Sigma-Aldrich Chemical Co. (Schnelldorf, Germany)
T1 sequence (P02787 20-698): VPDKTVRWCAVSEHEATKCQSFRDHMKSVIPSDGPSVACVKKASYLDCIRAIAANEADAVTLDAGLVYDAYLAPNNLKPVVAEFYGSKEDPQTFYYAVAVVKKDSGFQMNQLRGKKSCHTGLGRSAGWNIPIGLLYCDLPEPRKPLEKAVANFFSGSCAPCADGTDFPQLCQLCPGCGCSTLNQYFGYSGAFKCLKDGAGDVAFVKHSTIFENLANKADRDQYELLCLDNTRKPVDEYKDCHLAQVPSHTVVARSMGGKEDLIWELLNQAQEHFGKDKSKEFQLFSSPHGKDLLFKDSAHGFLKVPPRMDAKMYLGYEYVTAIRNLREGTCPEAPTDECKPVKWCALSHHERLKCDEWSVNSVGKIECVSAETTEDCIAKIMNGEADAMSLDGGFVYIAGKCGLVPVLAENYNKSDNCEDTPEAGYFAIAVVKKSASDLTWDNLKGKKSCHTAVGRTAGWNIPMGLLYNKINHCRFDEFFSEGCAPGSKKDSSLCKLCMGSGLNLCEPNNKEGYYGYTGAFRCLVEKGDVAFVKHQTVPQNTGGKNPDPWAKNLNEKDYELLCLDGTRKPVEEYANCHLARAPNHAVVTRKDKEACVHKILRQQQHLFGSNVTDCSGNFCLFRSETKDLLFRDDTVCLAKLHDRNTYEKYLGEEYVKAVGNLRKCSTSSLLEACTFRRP
Experimental: (§4) Using a Jasco FP 6500 spectrofluorometer (Jasco, Tokyo, Japan) and quartz cells with a 1 cm path length, the fluorescence spectra of HSA and apo-Tf were recorded in the presence and absence of the examined substances. The 2.5 mL samples containing 2.5 µM HSA or 1 µM apo-Tf were titrated by adding 5 µL of the tested substance at a time, a volume that corresponded to a 1 µM increase in concentration. The concentration range used for these experiments varied from 0 to 8 µM. The relevant spectra were collected in the emission domains of 300–500 nm (HSA) and 305–500 nm (apo-Tf) after 3 min of continuous stirring at room temperature, using excitation wavelengths of 280 nm (HSA) and 295 nm (apo-Tf).
(§5) Experiments were conducted in a pH = 7.4 Tris-HCl buffer (5 mM Tris-HCl/50 mM NaCl for HSA and 5 mM Tris-HCl/50 mM NaCl/25 mM NaHCO3 for apo-Tf).
(§6) The following modified Stern–Volmer equation has been used to calculate the Stern–Volmer constant, which will be denoted as KSV* in order to differentiate it from the Stern–Volmer constant calculated for the DNA binding experiments:(5) F0/F0−F=1/faKsv*[Q]+1/fa where F0 and F are the fluorescence intensities in the absence and presence of the tested compounds, fa is the fraction of fluorophore accessible to the quencher (the tested compounds), [Q] is the quencher concentration, and KSV* (M^−1) is the Stern–Volmer constant; the plot of F0/(F0 − F) against 1/[Q] yields KSV as the slope and fa as the y intercept.
(§7) Subsequently, the bimolecular quenching rate constant was obtained by using Equation (6):(6) Ksv^*=Kqτ0
(§8) Kq (M^−1·s^−1) is the bimolecular quenching rate constant and τ0 is the fluorophore’s lifespan in the absence of the investigated chemicals (10^−8 s). The value of Kq can be used to assess whether the quenching phenomena have an underlying static or dynamic mechanism.
(§9) Using the following equation, the affinity constant (Ka) and the number of binding sites (n) have been calculated: (7) lgF0−F/F=lgKa+nlg[Q]
(§10) The binding affinity, Kd, can be calculated using the quadratic function below:(8) F0−F/F0−Fb=[P]t+[Q]+Kd−([P]t+[Q]+Kd)^2−4[P]t[Q]/2[P]t where F and F0 are the fluorescence intensities of the protein in the presence and absence of the quencher, respectively, Fb is the fluorescence of a fully bound protein–quencher, [P]t is the total concentration of the protein, and [Q] is the concentration of the added quencher. Each binding isotherm was plotted against the total quencher concentration in solution as a function of bound to free protein (F/F0).
(§11) The isotherms were then fitted using the nonlinear regression function below:(9) F/F0= F1+(F2−F1)Kdn/Kdn+[Q]^n where n represents the Hill coefficient, F1 and F2 are the horizontal and vertical asymptotes, respectively. The Kd in Equation (9) is derived from the quadratic binding function (Equation (8)).
(§12) Data were collected in triplicate, averaged, and expressed as mean value ± standard deviation (SD). All graph fitting models were defined and built using OriginPro® 2018.

EB–DNA system (CT-DNA) = assay: Competitive binding assay with ethidium bromide (EB) through fluorescence spectroscopy; design: species or system calf; settings: EB 2 µM, CT-DNA 10 µM, compound 0–40 µM
Experimental: The fluorescence spectra were recorded using 1.6 mL samples containing 10 µM CT-DNA, 2 µM EB, and increasing amounts (0–40 µM with an increment of 5 µM) of tested compounds; the samples were prepared by keeping the components in contact for 10 min at room temperature, under continuous stirring and in the dark. The excitation wavelength was 500 nm, and the spectra were recorded between the wavelengths of 520 and 800 nm. A Jasco FP 6500 fluorometer and quartz cells with a 1 cm route length were employed. The classical Stern–Volmer equation (Equation (3)) was used to interpret the obtained data:(3) F0/F=1+KSV·[Q] F0 and F are the fluorescence intensities of the EB–DNA samples in the absence and presence of the tested compounds, respectively; KSV is the Stern–Volmer constant, which was computed as the slope from the plot of F0/F vs. [Q], where [Q] is the chemical concentration.
The binding ratio was plotted against the logarithm of the concentration in comparison with a control sample exposed solely to DMSO. (4) y=A1+(A2−A1)×x^n/K50^n+x^n
For fitting data points, the modified Hill function with offset (Origin®) was used: where y represents the binding ratio (F/F0), x represents the concentration, A1 represents the minimum of y values, A2 represents the maximum of y values, K50 represents the concentration corresponding to 50% binding or the half maximum binding constant, and n represents the Hill coefficient.

[3] = molecular target: T2, human serum albumin (HSA) (Homo sapiens, UniProt P02768); assay: HSA fluorescence quenching binding study; settings: for Ka (association binding constant), HSA / n1 (Number of Binding Sites), HSA / n2 (Hill Coefficient), HSA / Kd / fa (fraction of fluorophore accessible to the quencher), HSA / Kq (bimolecular quenching constant), HSA: 298 K; for Kd: read-out: Kd (dissociation constant), HSA; for fa (fraction of fluorophore accessible to the quencher), HSA / Ksv* (Stern–Volmer quenching constant), HSA: compound 0–8 µM; for Ksv* (Stern–Volmer quenching constant), HSA: Tris-HCl pH 7.4, 298 K; for Kq (bimolecular quenching constant), HSA: from Ksv* with τ0 = 10^−8 s
T2 construct: purchased Sigma-Aldrich Chemical Co. (Schnelldorf, Germany)
T2 sequence (P02768 25-609): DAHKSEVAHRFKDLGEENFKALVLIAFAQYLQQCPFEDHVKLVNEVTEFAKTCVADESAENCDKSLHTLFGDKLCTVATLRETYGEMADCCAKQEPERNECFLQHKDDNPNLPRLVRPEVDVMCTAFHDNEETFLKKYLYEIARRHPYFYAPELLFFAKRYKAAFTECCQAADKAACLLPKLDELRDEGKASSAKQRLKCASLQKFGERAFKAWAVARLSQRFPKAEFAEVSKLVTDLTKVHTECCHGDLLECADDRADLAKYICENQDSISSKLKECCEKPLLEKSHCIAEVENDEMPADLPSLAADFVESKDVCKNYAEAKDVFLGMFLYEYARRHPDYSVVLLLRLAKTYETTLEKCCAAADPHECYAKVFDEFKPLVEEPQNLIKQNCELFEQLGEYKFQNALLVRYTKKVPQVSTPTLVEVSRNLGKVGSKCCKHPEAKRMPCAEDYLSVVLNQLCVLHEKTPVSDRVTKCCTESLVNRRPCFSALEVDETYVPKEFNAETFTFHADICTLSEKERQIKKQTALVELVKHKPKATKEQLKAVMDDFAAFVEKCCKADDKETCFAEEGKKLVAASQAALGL
Experimental: as §4, §5, §6, §7, §8, §9, §10, §11, §12

SMILES | IC50 [1] | IC50 [2] | Ka (association binding constant), Apo-Tf (apotransferrin (apo-Tf)) | n1 (Number of Binding Sites), Apo-Tf (apotransferrin (apo-Tf)) | Kd (apotransferrin (apo-Tf)) | fa (fraction of fluorophore accessible to the quencher), Apo-Tf (apotransferrin (apo-Tf)) | Ksv* (Stern–Volmer quenching constant), Apo-Tf (apotransferrin (apo-Tf)) | quenching effect on apo-Tf fluorescence peak (apotransferrin (apo-Tf)) | Kq (bimolecular quenching constant), Apo-Tf (apotransferrin (apo-Tf)) | EB Displacement Assay K50 (half maximum binding constant) (EB–DNA system (CT-DNA)) | KSV, Stern–Volmer quenching constant (EB–DNA) (EB–DNA system (CT-DNA)) | IC50 (μM) LoVo [1] | Ka (association binding constant), HSA ([3]; HSA 2.5 µM) | n1 (Number of Binding Sites), HSA ([3]; HSA 2.5 µM) | n2 (Hill Coefficient), HSA ([3]; HSA 2.5 µM) | Kd ([3]; HSA 2.5 µM) | fa (fraction of fluorophore accessible to the quencher), HSA ([3]; HSA 2.5 µM) | Ksv* (Stern–Volmer quenching constant), HSA ([3]; HSA 2.5 µM) | n2 (Hill Coefficient), Apo-Tf (apotransferrin (apo-Tf)) | Kq (bimolecular quenching constant), HSA [3] | other results
N.N.[Cl][Pt][Cl] [Cis-Pt, cisplatin, reference compound] | 38.6 ± 4.63 µM | 78.5 ± 16 µM |  |  |  |  |  |  |  |  |  |  |  |  |  |  |  |  |  |  | 
CCn1cc(C(=O)[O-])c(=O)c2ccc(C)nc21.CCn1cc(C(=O)[O-])c(=O)c2ccc(C)nc21.O.O.O.O.[Eu+3].[OH-] [Eu(nal)2, Eu(C12H11N2O3)2(OH)(H2O)·3H2O] | > 200 µM | > 200 µM | (1.02 ± 0.13) × 10^4 M^−1 | 0.80 ± 0.01 | 7.07 ± 6.13 µM | 0.71 ± 0.01 | (1.85 ± 0.06) × 10^5 M^−1 | 41% | 1.85e+13 M⁻¹ s⁻¹ | 34.75 ± 3.69 µM | 8.35 ± 0.13 M^−1 (×10^3) | not toxic | (11.99 ± 1.38) × 10^5 M^−1 | 1.13 ± 0.01 | 1.14 ± 0.27 | 4.63 ± 0.97 µM | 1.17 ± 0.04 | (1.75 ± 0.11) × 10^5 M^−1 |  |  | quenching effect on HSA fluorescence peak ([3]; HSA 2.5 µM, compound up to 8 µM): 67%
CCn1cc(C(=O)[O-])c(=O)c2ccc(C)nc21.CCn1cc(C(=O)[O-])c(=O)c2ccc(C)nc21.O.O.O.O.[Gd+3].[OH-] [Gd(nal)2, Gd(C12H11N2O3)2(OH)(H2O)·3H2O] | > 200 µM | > 200 µM | (3.46 ± 1.34) × 10^4 M^−1 | 0.94 ± 0.03 | 8.87 ± 6.2 µM | 0.92 ± 0.07 | (0.78 ± 0.09) × 10^5 M^−1 |  | 7.8e+12 M⁻¹ s⁻¹ | 34.11 ± 8.90 µM | 10.47 ± 0.13 M^−1 (×10^3) | not toxic | (15.52 ± 2.93) × 10^5 M^−1 | 1.15 ± 0.01 | 1.20 ± 0.23 | 4.79 ± 0.84 µM | 1.25 ± 0.03 | (1.51 ± 0.07) × 10^5 M^−1 | 1.20 ± 0.40 | 1.51e+13 M⁻¹ s⁻¹ | 
CCn1cc(C(=O)[O-])c(=O)c2ccc(C)nc21.CCn1cc(C(=O)[O-])c(=O)c2ccc(C)nc21.O.O.O.[La+3].[OH-] [La(nal)2, La(C12H11N2O3)2(OH)(H2O)·2H2O] | 25.1 ± 9.11 µM | 114 ± 46.8 µM | (6.94 ± 2.32) × 10^4 M^−1 | 1.00 ± 0.03 | 5.43 ± 1.46 µM | 1.20 ± 0.49 | (0.44 ± 0.23) × 10^5 M^−1 |  | 4.4e+12 M⁻¹ s⁻¹ | 31.39 ± 13.66 µM | 8.90 ± 0.17 M^−1 (×10^3) |  | (9.03 ± 1.04) × 10^5 M^−1 | 1.09 ± 0.01 | 1.32 ± 0.11 | 3.35 ± 0.11 µM | 1.09 ± 0.02 | (1.09 ± 0.02) × 10^5 M^−1 | 1.82 ± 0.55 | 1.09e+13 M⁻¹ s⁻¹ | 
CCn1cc(C(=O)[O-])c(=O)c2ccc(C)nc21.CCn1cc(C(=O)[O-])c(=O)c2ccc(C)nc21.CCn1cc(C(=O)[O-])c(=O)c2ccc(C)nc21.O.O.O.O.O.O.O.O.[La+3] [La(nal)3, La(C12H11N2O3)3(H2O)2·6H2O] | 49.8 ± 7.92 µM | 149 ± 17.9 µM | (1.51 ± 0.72) × 10^4 M^−1 | 0.86 ± 0.04 | 8.64 ± 2.22 µM | 0.80 ± 0.06 | (1.04 ± 0.13) × 10^5 M^−1 | 31% | 1.04e+13 M⁻¹ s⁻¹ | 36.45 ± 16.53 µM | 2.48 ± 0.44 M^−1 (×10^3) |  | (27.48 ± 2.10) × 10^5 M^−1 | 1.16 ± 0.00 | 1.18 ± 0.08 | 2.91 ± 0.07 µM | 1.12 ± 0.01 | (2.75 ± 0.10) × 10^5 M^−1 | 1.04 ± 0.19 | 2.75e+13 M⁻¹ s⁻¹ | 

— paper PMC9412414, “A Study on Repositioning Nalidixic Acid via Lanthanide Complexation: Synthesis, Characterization, Cytotoxicity and DNA/Protein Binding Studies” (Pharmaceuticals, 2022)
